Holding throughout (test): DTP human tumour cell line panel, 48 h
Experiment [1] concerns SF-268 CNS.
Experiment [2] deals with KM12 colon.
The subject of experiment [3] is TK-10 renal.
In experiment [4] the test system is HOP-62 NSCLC.
Experiment [5] deals with SNB-75 CNS.
In experiment [6] the test system is SF-295 CNS.
For experiment [7], the system named is IGROV1 ovarian.
Experiment [8] deals with DU-145 prostate.
The subject of experiment [9] is NCI-H460 lung.
The test system of experiment [10] is MOLT-4 leukemia.

Where “and” joins values, the source holds several entries; their conditions need not be identical. Equal values may be shown once.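 Step 1: Grow cells in 96-well plates. Step 2: Expose to compound for 48 hours at 5 concentrations. Step 3: Interpolate endpoints linearly; if unreached, use highest concentration. At the GI50, growth is halved. Definition used: TGI = concentration required for complete inhibition of growth.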

As usually defined, the GI50 is the concentration at which growth is held to half of that of the control. The term TGI denotes the concentration giving total growth inhibition. `C=C(C)[C@@H]1CC[C@]2(C(N)=O)CC[C@]3(C)[C@H](CC[C@@H]4[C@@]5(C)C/C(=C/c6cccnc6)[C@H](O)C(C)(C)[C@@H]5CC[C@]43C)[C@@H]12`: the GI50 in experiment [1] was 6.8 µM; in experiment [2], 3.82 µM; in experiment [3], 16.3 µM; in [4] it was 9.52 µM; in experiment [5], 4.29 µM; in experiment [6] it was 3.75 µM. For the same compound, the GI50 was 3.85 µM in experiment [7], 7.08 µM in experiment [8], 4.22 µM in experiment [9] and 2.93 µM in experiment [10]. Moreover, the TGI in [1], in experiment [2], in experiment [3], in experiment [4], in [5] and in [6] was > 100 µM throughout. For the same compound, the TGI in experiment [7], in experiment [8], in experiment [9] and in experiment [10] was > 100 µM throughout.

For `COc1cnc2c(c1)C(=O)c1c-2n(CCCNC(C)C)c(=O)c2cc([N+](=O)[O-])ccc12`, the GI50 in experiment [1] is 0.0488 µM; in experiment [2] it was 0.221 µM; in experiment [3] it was 0.134 µM; in [4] it was 0.0853 µM; in [5], 0.0696 µM; in experiment [6], 0.0309 µM. In addition, the GI50 is 0.115 µM in experiment [7], 0.0502 µM in [8], 0.0191 µM in [9] and 0.0223 µM in experiment [10]. For the same compound, the TGI in [1] was 1.42 µM; in experiment [2] it was 0.981 µM; in experiment [3], 0.318 µM; in experiment [4] it was 0.34 µM; in experiment [5], 0.48 µM; in [6], 0.221 µM. In addition, the TGI was found to be 1.43 µM in [7], 0.403 µM in experiment [8], 0.126 µM in [9] and 0.0941 µM in experiment [10].

In the case of `COc1ccc2nc(-c3cc4c([nH]c5ccccc54)c(-c4ccc(F)c(F)c4)n3)[nH]c2c1`, the GI50 in experiment [1] is 5.8 µM; in experiment [2] it was 2.93 µM; in experiment [3] it was 4.29 µM; in [4] it was 10.9 µM; in experiment [5], 14.2 µM; in [7], 4.62 µM. Further, the GI50 in experiment [8] is 4.13 µM; in experiment [9] it was 2.97 µM; in experiment [10], 2.03 µM. Also, the TGI came out at 69.6 µM in experiment [1]; 13 µM in experiment [2]; 17.3 µM in [3]; 25.5 µM in experiment [4]; 29.7 µM in experiment [5]; 34.7 µM in [7]. Besides, the TGI in experiment [8] is 17.3 µM; in experiment [9] it was 12.5 µM; in experiment [10], 7.39 µM.

In the case of `CC1=CC(=O)c2ccc(C)cc2C1=O`, the TGI stood at 38.4 µM in [1]; 19.8 µM in experiment [2]; 34 µM in [3]; 32 µM in [4]; 31.6 µM in experiment [6]; 30.8 µM in [7]. Moreover, the TGI in experiment [8] is 35.7 µM; in [9], 32.4 µM; in [10] it was 6.24 µM.

As for `CC(C)c1ccc2nc3ccc(C(=O)NCCN4CCN(c5ccccc5)CC4)cn3c(=O)c2c1`, the TGI in [1] is > 100 µM; in experiment [2], > 100 µM; in [3], > 100 µM; in experiment [4], > 100 µM; in experiment [6] it was 4.91 µM; in experiment [7] it was > 100 µM. The TGI in experiment [8] and in experiment [9] was > 100 µM in each case.

In the case of `Cn1c(=O)c2[nH]c(CCCCc3nc4c([nH]3)c(=O)n(C)c(=S)n4C)nc2n(C)c1=S`, the concentration for total growth inhibition (TGI) in experiment [1] was > 100 µM; in experiment [2], > 100 µM; in experiment [3] it was > 100 µM; in [4] it was > 100 µM; in [5] it was 53.1 µM; in experiment [6], > 100 µM. Besides, the TGI in experiment [7], in [8] and in experiment [9] was > 100 µM throughout.

On to `Nc1nc(-c2cccs2)cs1`, for which the concentration for total growth inhibition (TGI) in experiment [1], in [2], in [3], in experiment [4], in experiment [5] and in experiment [6] was > 100 µM each time. The TGI in experiment [7], in [8] and in experiment [9] was > 100 µM in each case.

Regarding `C/C=C/C1=CN2C(=O)c3cc(OC4OC(C)C(NC)C(C)(O)C4O)c(C)c(O)c3N=C[C@@H]2C1` (stereo partly drawn), the GI50 in experiment [1] was 0.0342 µM and < 0.01 µM; in [3] it was 0.326 µM; in [6], < 0.01 µM; in [8], 0.0617 µM and < 0.01 µM; in experiment [9], 0.0376 µM and < 0.01 µM; in experiment [10] it was 0.0413 µM and < 0.01 µM. Besides, the TGI in experiment [6] was > 100 µM; in experiment [8], 10.7 µM.

As for `COc1ccc2c(c1)C(=O)c1c-2c(NCCN(C)C)nc2ccccc12`, the GI50 in experiment [1] is 2.97 µM; in [2], 2.94 µM; in experiment [3], 8.19 µM; in experiment [4] it was 14.3 µM; in experiment [6] it was 3.83 µM; in experiment [7], 1.86 µM. For the same compound, the values for the GI50 in experiment [8], in [9] and in experiment [10] were 2.95 µM, 0.671 µM and 0.291 µM, respectively. For the same compound, the TGI in experiment [1] is 15.5 µM; in [2], 23 µM; in experiment [3], 28.8 µM; in experiment [4], 27.4 µM; in [6], 17.5 µM; in [7] it was 7.14 µM. In addition, the results for the TGI in experiment [8], in experiment [9] and in experiment [10] were 17.5 µM, 10.6 µM and 1.15 µM, respectively.

Regarding `COC(=O)C(=O)C(C(=O)OC)C(=O)C(=O)Nc1cc(Cl)c(Cl)cc1Cl` (stereo not drawn), the TGI in experiment [1], in [2], in [3], in experiment [4], in experiment [5] and in experiment [6] was > 100 µM throughout. Further, the concentration for total growth inhibition (TGI) in experiment [7], in [9] and in [10] was > 100 µM in each case.
